This note sets out measurements from article PMC9490236, “Accurate de novo design of membrane-traversing macrocycles” (Cell, 2022).

Structures are written as SMILES. Where a SMILES comes first, the peptide text is derived from it. [ ]: non-standard residue; d: D form. NMeF = CN[C@@H](Cc1ccccc1)C(=O)O; dNMeF = CN[C@H](Cc1ccccc1)C(=O)O; NMeL = CN[C@@H](CC(C)C)C(=O)O; dNMeL = CN[C@H](CC(C)C)C(=O)O; NMeM = CN[C@@H](CCSC)C(=O)O; NMeV = CN[C@H](C(=O)O)C(C)C; NMeA = CN[C@@H](C)C(=O)O; dNMeA = CN[C@H](C)C(=O)O

The conditions of data set [1]: PAMPA.
The nature of the next data set: in vitro. As to conditions: PAMPA, PAMPA_Papp_Avg.

Turning to `CC[C@H](C)[C@@H]1NC(=O)[C@@H]2CCCN2C(=O)[C@H]2CCCN2C(=O)[C@@H](Cc2ccccc2)NC(=O)[C@@H](CC(C)C)N(C)C(=O)[C@H](C(C)C)NC(=O)[C@@H](CC(C)C)NC(=O)[C@@H]2CCCN2C(=O)[C@H]2CCCN2C(=O)[C@@H](C)N(C)C(=O)[C@H](C(C)C)N(C)C1=O` [Design D11.21, PRO ILE *VAL *DALA DPRO PRO DLEU VAL *DLEU DPHE DPRO] (cyclo(I[NMeV][dNMeA][dP]P[dL]V[dNMeL][dF][dP]P)), in data set [1], the PAMPA_R1 was 2.47E-07 and the PAMPA_R3 was 2.17E-07. For the same molecule, in “in vitro”, the Papp came to 0.24 ×10⁻⁶ cm/s.

Take `CC[C@@H](C)[C@H]1NC(=O)[C@H]2CCCN2C(=O)[C@H]([C@@H](C)CC)NC(=O)[C@H](CC(C)C)N(C)C(=O)[C@H]2CCCN2C(=O)[C@@H]2CCCN2C(=O)[C@H](Cc2ccccc2)N(C)C(=O)[C@H](Cc2ccccc2)NC(=O)[C@H]([C@@H](C)CC)NC1=O` [Design D9.13, DPRO DILE ILE PHE *PHE PRO DPRO *LEU ILE] (cyclo(F[NMeF]P[dP][NMeL]I[dP][dI]I)): in data set [1], the PAMPA_R1 was found to be 3.63E-06 and the PAMPA_R3 is given as 3.09E-06. The molecule also displayed a Papp in “in vitro” of 3.37 ×10⁻⁶ cm/s.

In data set [1], `CC(C)C[C@@H]1C(=O)N[C@H](Cc2ccccc2)C(=O)N2CCC[C@@H]2C(=O)N2CCC[C@@H]2C(=O)N2CCC[C@H]2C(=O)N[C@H](C(C)C)C(=O)N(C)[C@@H](C)C(=O)N(C)[C@@H](C)C(=O)N(C)[C@H](CC(C)C)C(=O)N1C` [Design D9.25, DVAL *ALA *ALA *DLEU *DLEU DPHE DPRO DPRO PRO] (cyclo([dV][NMeA][NMeA][dNMeL][dNMeL][dF][dP][dP]P)) showed a PAMPA_R1 of 2.32E-06 and a PAMPA_R3 of 1.52E-06. Also, the Papp in the data set “in vitro” is 2.19 ×10⁻⁶ cm/s.

With `CC(C)C[C@@H]1C(=O)N[C@H](C(C)C)C(=O)N(C)[C@@H](C(C)C)C(=O)N2CCC[C@H]2C(=O)N2CCC[C@@H]2C(=O)N[C@@H](C)C(=O)N(C)[C@@H](Cc2ccccc2)C(=O)N(C)[C@H](CC(C)C)C(=O)N[C@H](C)C(=O)N1C` [Design D9.17, DPRO ALA *PHE *DLEU DALA *DLEU DVAL *VAL PRO] (cyclo(A[NMeF][dNMeL][dA][dNMeL][dV][NMeV]P[dP])), in data set [1], the PAMPA_R1 was 2.83E-06 and the PAMPA_R3 is on record as 4.13E-07. The molecule further gave a Papp in the data set “in vitro” of 1.74 ×10⁻⁶ cm/s.

In data set [1], `CC(C)C[C@H]1NC(=O)[C@@H](C(C)C)NC(=O)[C@H](CC(C)C)N(C)C(=O)[C@@H](Cc2ccccc2)NC(=O)[C@H](CC(C)C)N(C)C(=O)[C@H]2CCCN2C(=O)[C@@H]2CCCN2C(=O)[C@H]2CCCN2C(=O)[C@@H](C(C)C)NC(=O)[C@H]2CCCN2C1=O` [Design D10.42, DVAL DLEU DPRO DVAL DPRO PRO DPRO *LEU DPHE *LEU] (cyclo([dP][NMeL][dF][NMeL][dV][dL][dP][dV][dP]P)) showed a PAMPA_R1 of 7.55E-07 and a PAMPA_R3 of 8.78E-07. Also, the Papp in “in vitro” worked out at 0.71 ×10⁻⁶ cm/s.

`CC[C@H](C)[C@@H]1NC(=O)[C@H](C(C)C)NC(=O)[C@@H](CC(C)C)N(C)C(=O)[C@H](Cc2ccccc2)NC(=O)[C@@H](CC(C)C)N(C)C(=O)[C@@H](C)N(C)C(=O)[C@H]2CCCN2C(=O)[C@@H]2CCCN2C(=O)[C@H](CC(C)C)NC(=O)[C@@H](C)N(C)C(=O)[C@@H]2CCCN2C1=O` [Design D11.20, PRO *DALA LEU PRO DPRO *DALA *DLEU PHE *DLEU VAL ILE] (cyclo(F[dNMeL]VIP[dNMeA]LP[dP][dNMeA][dNMeL])): in data set [1], the PAMPA_R1 was found to be 1.21E-06 and the PAMPA_R3 was 9.60E-07. In addition, in “in vitro”, the Papp turned out to be 1.29 ×10⁻⁶ cm/s.

In data set [1], `CSCC[C@H]1C(=O)N(C)[C@H](C)C(=O)N[C@H](CC(C)C)C(=O)N2CCC[C@@H]2C(=O)N2CCC[C@H]2C(=O)N[C@@H](CC(C)C)C(=O)N2CCC[C@H]2C(=O)N2CCC[C@@H]2C(=O)N[C@H](C(C)C)C(=O)N1C` [Design D9.24, DPRO DVAL *MET *DALA DLEU DPRO PRO LEU PRO] (cyclo(LP[dP][dV][NMeM][dNMeA][dL][dP]P)) came in with a PAMPA_R1 of 7.85E-08 and a PAMPA_R3 of 8.51E-08. The same molecule came in with a Papp in “in vitro” of 0.0869 ×10⁻⁶ cm/s.

Turning to `CC[C@H](C)[C@@H]1NC(=O)[C@@H](Cc2ccccc2)NC(=O)[C@@H](C)NC(=O)[C@@H](C(C)C)NC(=O)[C@H](CCSC)NC(=O)[C@@H]2CCCN2C(=O)[C@H]2CCCN2C(=O)[C@@H]2CCCN2C(=O)[C@@H](C)N(C)C(=O)[C@@H](CC(C)C)N(C)C1=O` [Design D10.45, DVAL DALA DPHE ILE *DLEU *DALA PRO DPRO PRO MET] (cyclo(M[dV][dA][dF]I[dNMeL][dNMeA]P[dP]P)), in data set [1], the PAMPA_R1 is listed as 5.38E-07 and the PAMPA_R3 is on record as 3.72E-07. Besides, the apparent permeability coefficient (Papp) in the data set “in vitro” was 0.487 ×10⁻⁶ cm/s.

As for `CC[C@@H](C)[C@H]1NC(=O)[C@H](C)NC(=O)[C@@H](CC(C)C)N(C)C(=O)[C@H](CC(C)C)N(C)C(=O)[C@H](C(C)C)NC(=O)[C@@H]2CCCN2C(=O)[C@@H](CC(C)C)N(C)C(=O)[C@@H](C)N(C)C(=O)[C@@H](Cc2ccccc2)NC(=O)[C@@H]2CCCN2C(=O)[C@H]2CCCN2C1=O` [Design D11.6, VAL *LEU *DLEU ALA DILE DPRO PRO DPHE *DALA *DLEU PRO] (cyclo([dF][dNMeA][dNMeL]PV[NMeL][dNMeL]A[dI][dP]P)), in data set [1], the PAMPA_R1 was 1.24E-06 and the PAMPA_R3 is 7.58E-07. The molecule further had a Papp in “in vitro” of 0.949 ×10⁻⁶ cm/s.

With `CC[C@@H](C)[C@H]1NC(=O)[C@H](CC(C)C)N(C)C(=O)[C@H]2CCCN2C(=O)[C@@H](Cc2ccccc2)N(C)C(=O)[C@@H](Cc2ccccc2)N(C)C(=O)[C@H](CC(C)C)N(C)C(=O)[C@@H](C(C)C)NC(=O)[C@@H]2CCCN2C(=O)[C@H](C)NC1=O` [Design D9.9, PRO DVAL *LEU *DPHE *DPHE DPRO *LEU DILE ALA] (cyclo(AP[dV][NMeL][dNMeF][dNMeF][dP][NMeL][dI])), in data set [1], the PAMPA_R1 is 7.88E-07 and the PAMPA_R3 stood at 2.31E-07. For the same molecule, in the data set “in vitro”, the Papp amounted to 0.575 ×10⁻⁶ cm/s.

With `CC[C@@H](C)[C@H]1NC(=O)[C@H]2CCCN2C(=O)[C@@H](C)NC(=O)[C@@H](CC(C)C)N(C)C(=O)[C@H]([C@@H](C)CC)NC(=O)[C@@H](C(C)C)NC(=O)[C@@H](CC(C)C)N(C)C(=O)[C@@H]2CCCN2C(=O)[C@@H]2CCCN2C1=O` [Design D9.26, DPRO DILE PRO PRO *DLEU DVAL ILE *DLEU DALA] (cyclo(I[dNMeL][dA][dP][dI]PP[dNMeL][dV])), in data set [1], the PAMPA_R1 is listed as 2.58E-06 and the PAMPA_R3 is recorded as 2.23E-06. In “in vitro”, the Papp amounted to 2.32 ×10⁻⁶ cm/s.

For the molecule `CC(C)C[C@@H]1C(=O)N(C)[C@H](CC(C)C)C(=O)N[C@H](CC(C)C)C(=O)N[C@@H](C(C)C)C(=O)N2CCC[C@@H]2C(=O)N2CCC[C@H]2C(=O)N[C@H](CC(C)C)C(=O)N[C@@H](C(C)C)C(=O)N1C` [Design D8.23, DLEU VAL *DLEU *DLEU DLEU VAL DPRO PRO] (cyclo([dL]V[dNMeL][dNMeL][dL]V[dP]P)), in data set [1], the PAMPA_R1 worked out at 1.18E-06 and the PAMPA_R3 was determined as 1.40E-06. Besides, the apparent permeability coefficient (Papp) in the data set “in vitro” stood at 1.28 ×10⁻⁶ cm/s.

In data set [1], `CC(C)C[C@H]1NC(=O)[C@@H]2CCCN2C(=O)[C@H]2CCCN2C(=O)[C@H](C(C)C)NC(=O)[C@@H](CC(C)C)NC(=O)[C@@H]2CCCN2C(=O)[C@H]2CCCN2C(=O)[C@H](C(C)C)NC1=O` (single isomer, unassigned) [D8.12 p1, DLEU VAL DPRO PRO DLEU VAL DPRO PRO] returned a PAMPA_R1 of 1.52E-07 and a PAMPA_R3 of 1.92E-07. The molecule also came in with an apparent permeability coefficient (Papp) in “in vitro” of 0.169 ×10⁻⁶ cm/s.

With `CC(C)C[C@@H]1C(=O)N[C@@H](C)C(=O)N[C@H](CC(C)C)C(=O)N2CCC[C@H]2C(=O)N[C@H](C)C(=O)N2CCC[C@@H]2C(=O)N2CCC[C@H]2C(=O)N[C@H](C(C)C)C(=O)N[C@H](CC(C)C)C(=O)N(C)[C@H](CC(C)C)C(=O)N1C` [Design D10.43, DALA DPRO PRO DVAL DLEU *DLEU *DLEU ALA DLEU PRO] (cyclo([dV][dL][dNMeL][dNMeL]A[dL]P[dA][dP]P)), in data set [1], the PAMPA_R1 was 1.81E-07 and the PAMPA_R3 is 1.70E-07. Further, the Papp in the data set “in vitro” worked out at 0.161 ×10⁻⁶ cm/s.

In data set [1], `CC(C)C[C@@H]1C(=O)N2CCC[C@@H]2C(=O)N(C)[C@@H](C(C)C)C(=O)N[C@@H](C(C)C)C(=O)N2CCC[C@H]2C(=O)N2CCC[C@@H]2C(=O)N[C@@H](C)C(=O)N[C@H](C(C)C)C(=O)N(C)[C@@H](CC(C)C)C(=O)N[C@@H](C)C(=O)N1C` [Design D10.6, PRO DPRO ALA DVAL *LEU ALA *DLEU DPRO *VAL VAL] (cyclo(A[dNMeL][dP][NMeV]VP[dP]A[dV][NMeL])) gave a PAMPA_R1 of 1.62E-06 and a PAMPA_R3 of 7.67E-07. The Papp in “in vitro” was determined as 1.22 ×10⁻⁶ cm/s.

In data set [1], `CC(C)[C@H]1C(=O)N[C@H](Cc2ccccc2)C(=O)N2CCC[C@H]2C(=O)N[C@H](Cc2ccccc2)C(=O)N2CCC[C@H]2C(=O)N2CCC[C@H]2C(=O)N1C` [Design D6.6, PRO PRO *VAL DPHE PRO DPHE] (cyclo([NMeV][dF]P[dF]PP)) gave a PAMPA_R1 of 2.64e-06 cm/s and a PAMPA_R3 of 6.73e-06 cm/s. The molecule also displayed a Papp in “in vitro” of 3.64 ×10⁻⁶ cm/s.

In data set [1], `CC[C@H](C)[C@@H]1NC(=O)[C@H]2CCCN2C(=O)[C@H](CC(C)C)N(C)C(=O)[C@H](CC(C)C)NC(=O)[C@H](C(C)C)NC(=O)[C@@H]2CCCN2C(=O)[C@H](CC(C)C)N(C)C(=O)[C@H](C(C)C)NC(=O)[C@@H](C(C)C)NC1=O` [Design D9.39, DVAL VAL *LEU PRO VAL LEU *LEU DPRO ILE] (cyclo(I[dV]V[NMeL]PVL[NMeL][dP])) came in with a PAMPA_R1 of 5.51E-07 and a PAMPA_R3 of 2.78E-07. The Papp in the data set “in vitro” is 0.466 ×10⁻⁶ cm/s.

In data set [1], `CC(C)C[C@@H]1C(=O)N[C@H](C)C(=O)N[C@@H](C(C)C)C(=O)N2CCC[C@@H]2C(=O)N[C@H](C(C)C)C(=O)N2CCC[C@@H]2C(=O)N2CCC[C@H]2C(=O)N[C@H](C)C(=O)N(C)[C@H](CC(C)C)C(=O)N1C` [Design D9.29, DVAL DPRO PRO DALA *DLEU *DLEU DALA VAL DPRO] (cyclo([dA][dNMeL][dNMeL][dA]V[dP][dV][dP]P)) returned a PAMPA_R1 of 1.96E-06 and a PAMPA_R3 of 1.19E-06. Moreover, the apparent permeability coefficient (Papp) in the data set “in vitro” was found to be 1.51 ×10⁻⁶ cm/s.
